The nature of data set [1]: Measurement of imaging sensitivity (phantom experiment), 19F MRI. Details: key to detectability as image at 500 mM / detectability as image at 100 mM / detectability as image at 50 mM / detectability as image at 10 mM / detectability as image at 5 mM / detectability as image at 1 mM / detectability as image at 500 μM / detectability as image at 100 μM: .smallcircle.: detectable as clear image; Δ: margially detectable as image; x: undetectable. The conditions noted are these: 1.5 T; for detectability as image at 100 μM / detectability as image at 500 μM / detectability as image at 1 mM / detectability as image at 5 mM / detectability as image at 10 mM / detectability as image at 50 mM / detectability as image at 100 mM / detectability as image at 500 mM: 20 min, complexes GRASS TR 10/TE 2 msec, 5-FU spin echo TR 4500/TE 100 msec. As for the experimental part: Measurement of imaging sensitivity (phantom experiment)
Each of metal complex solution with various concentration of the present invention was sealed in cylindrical acryl phantom with an inner diameter of 1 cm and a height of 10 cm and subject to imaging. SIGNA (1.5 T) available from GE was used as an MRI apparatus, and imaging was performed by using a surface coil 13 cm in diameter for fluorine. A GRASS method was used as a pulse sequence and measurement condition was as followed:
TR (repetition time)=10 msec;
The measurement was performed for 20 min., and the number of acquisition was 937. As references, alkaline aqueous solutions of 5-fluorouracil with various concentrations were imaged by an identical apparatus. […] The imaging time was 20 min., and the number of acquisition was twice. […] In contrast, each metal complex compound of the present […] of 0.5 mM to 5 mM.

Data set [2] is described as follows: Measurement of relaxation time (T1 and T2 of intramolecular fluorine atoms) by 90 MHz NMR. It counts as physicochemical. Details: unit not given here. To be noted: 10mM aqueous solution.

Consider `O=c1[nH]cc(F)c(=O)[nH]1` [Compound 5-FU, 5-fluorouracil, reference compound], for which, in data set [1], the “detectability as image at 100 μM” value is on record as “x”, the “detectability as image at 500 μM” value is “x”, the “detectability as image at 1 mM” value is “x” and the “detectability as image at 5 mM” value was “x”. Also, in data set [1], the “detectability as image at 10 mM” value is “x”, the “detectability as image at 50 mM” value was “Δ”, the “detectability as image at 100 mM” value is “Δ” and the “detectability as image at 500 mM” value is “.smallcircle”. Also, the “concentration required for detection as a clear image” value in data set [1] (20 min imaging) was at least 500 mM.

In the case of `O=C(O)CN1CCCN(CC(=O)O)CCN(Cc2ccc(C(F)(F)F)cc2)CCCN(CC(=O)O)CC1.[Gd]` [Compound-3], in data set [1], the “detectability as image at 100 μM” value is recorded as “x”, the “detectability as image at 500 μM” value is on record as “x”, the “detectability as image at 1 mM” value was “Δ” and the “detectability as image at 5 mM” value is on record as “Δ”. For the same compound, in data set [1], the “detectability as image at 10 mM” value is on record as “.smallcircle”, the “detectability as image at 50 mM” value was “.smallcircle”, the “detectability as image at 100 mM” value is recorded as “.smallcircle” and the “detectability as image at 500 mM” value is “.smallcircle”.

As for `O=C(O)CN1CCCN(CC(=O)O)CCN(Cc2cc(C(F)(F)F)cc(C(F)(F)F)c2)CCCN(CC(=O)O)CC1.[Gd]` [Compound-4, gadolinium complex of 1-[3,5-bis(trifluoromethyl)benzyl]-,1,4,8,11-tetraazacyclotetradecane-4,8,11-triacetic acid], in data set [1], the “detectability as image at 100 μM” value is “x”, the “detectability as image at 500 μM” value was “Δ”, the “detectability as image at 1 mM” value was “.smallcircle” and the “detectability as image at 5 mM” value is “.smallcircle”. In data set [1], the “detectability as image at 10 mM” value is “.smallcircle”, the “detectability as image at 50 mM” value was “.smallcircle”, the “detectability as image at 100 mM” value is “.smallcircle” and the “detectability as image at 500 mM” value is “.smallcircle”. In data set [2], the T1 was determined as 2.16 and the T2 amounted to 1.82.

Turning to `O=C(O)CN1CCCN(Cc2cc(C(F)(F)F)cc(C(F)(F)F)c2)CCN(CC(=O)O)CCCN(Cc2cc(C(F)(F)F)cc(C(F)(F)F)c2)CC1.[Gd]` [Compound-5], in data set [1], the “detectability as image at 100 μM” value is reported as “x”, the “detectability as image at 500 μM” value is listed as “Δ”, the “detectability as image at 1 mM” value was “.smallcircle” and the “detectability as image at 5 mM” value is reported as “.smallcircle”. In data set [1], the “detectability as image at 10 mM” value is “.smallcircle”, the “detectability as image at 50 mM” value is reported as “.smallcircle”, the “detectability as image at 100 mM” value is given as “.smallcircle” and the “detectability as image at 500 mM” value was “.smallcircle”.

`O=C(O)CN1CCN(CC(=O)O)CCN(Cc2cc(C(F)(F)F)cc(C(F)(F)F)c2)CCN(CC(=O)O)CC1.[Gd]` [Compound-8, gadolinium complex of 1-[3,5-bis(trifluoromethyl)benzyl]1,4,7,10-tetraazacyclododecane-4,7,10-triacetic acid]: in data set [2], the T1 is 2.11 and the T2 was determined as 1.79.

In the case of `O=C(O)CN1CCCN(CC(=O)O)CCN(Cc2ccc(C(C(F)(F)F)(C(F)(F)F)C(F)(F)F)cc2)CCCN(CC(=O)O)CC1.[Gd]` [Compound-10, gadolinium complex of 1-[4-[tris(trifluoromethyl)methyl]benzyl]-1,4,8,11-tetraazacyclotetradecane-4,8,11-triacetic acid], in data set [2], the T1 was found to be 3.27 and the T2 was determined as 2.83.

Consider `O=C(O)CN1CCCN(CC(=O)O)CCN(Cc2ccc(/C=C/c3cc(C(F)(F)F)cc(C(F)(F)F)c3)cc2)CCCN(CC(=O)O)CC1.[Gd]` [Compound-13, gadolinium complex of 1-[4-[2-trans-(3,5-bis(trifluoromethyl)phenyl)vinyl]benzyl]-1,4,8,11-tetraazacyclotetradecane-4,8,11-triacetic acid], for which, in data set [1], the “detectability as image at 100 μM” value is “x”, the “detectability as image at 500 μM” value was “x”, the “detectability as image at 1 mM” value is reported as “Δ” and the “detectability as image at 5 mM” value was “.smallcircle”. Further, in data set [1], the “detectability as image at 10 mM” value is given as “.smallcircle”, the “detectability as image at 50 mM” value is reported as “.smallcircle”, the “detectability as image at 100 mM” value is recorded as “.smallcircle” and the “detectability as image at 500 mM” value was “.smallcircle”. In data set [2], the T1 was determined as 12.6 and the T2 is 9.31.

Turning to `O=C(O)CN1CCCN(CC(=O)O)CCN(CC(=O)O)CCCN(CCN(Cc2cc(C(F)(F)F)cc(C(F)(F)F)c2)Cc2cc(C(F)(F)F)cc(C(F)(F)F)c2)CC1.[Gd]` [Compound-20, gadolinium complex of 1-[N""',N""'-bis[3,5-bis(trifluoromethyl)benzyl]aminoethyl]-1,4,8,11-tetraazacyclotetradecane-4,8,11-triacetic acid], in data set [1], the “detectability as image at 100 μM” value is given as “Δ”, the “detectability as image at 500 μM” value is listed as “Δ”, the “detectability as image at 1 mM” value was “.smallcircle” and the “detectability as image at 5 mM” value was “.smallcircle”. For the same compound, in data set [1], the “detectability as image at 10 mM” value is reported as “.smallcircle”, the “detectability as image at 50 mM” value is on record as “.smallcircle”, the “detectability as image at 100 mM” value is given as “.smallcircle” and the “detectability as image at 500 mM” value was “.smallcircle”.

For the compound `O=C(O)CN1CCCN(CC(=O)O)CCN(Cc2cc(C(F)(F)F)cc(C(F)(F)F)c2)CCCN(CC(=O)O)CC1.[Cu]` [Compound-23, copper complex of 1-[3,5-bis(trifluoromethyl)benzyl]-1,4,8,11-tetraazacyclotetradecane-4,8,11-triacetic acid], in data set [1], the “detectability as image at 100 μM” value is reported as “x”, the “detectability as image at 500 μM” value is reported as “x”, the “detectability as image at 1 mM” value is reported as “Δ” and the “detectability as image at 5 mM” value is “.smallcircle”. In data set [1], the “detectability as image at 10 mM” value was “.smallcircle”, the “detectability as image at 50 mM” value is recorded as “.smallcircle”, the “detectability as image at 100 mM” value is given as “.smallcircle” and the “detectability as image at 500 mM” value was “.smallcircle”. For the same compound, in data set [2], the T1 was 36.5 and the T2 worked out at 24.9.

Regarding `O=C([O-])CN1CCCN(CC(=O)[O-])CCN(Cc2cc(C(F)(F)F)cc(C(F)(F)F)c2)CCCN(CC(=O)[O-])CC1.[Cr+3]` [Compound-24, chromium complex of 1-[3,5-bis(trifluoromethyl)benzyl]-1,4,8,11-tetraazacyclotetradecane-4,8,11-triacetic acid], in data set [2], the T1 is on record as 15.5 and the T2 turned out to be 10.4.

In data set [2], “gadolinium complex of 1-[N""'-[3,5-bis(trifluoromethyl)benzyl]aminoethyl]-1,4,8,11-tetraazacyclotetradecane-4,8,11-triacetic acid [Compound-21]” showed a T1 of 6.34 and a T2 of 4.21.

In data set [2], “gadolinium complex with 1-(2,2,2-trifluoroethyl)-1,4,8,11-tetraazacyclodecane-4,8,11-tetraacetic acid [Compound-1]” showed a T1 of 1.73 and a T2 of 1.58.
